Data: ChEMBL document CHEMBL1201862, “PubChem BioAssay data set” (2004)
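Protocol summary: plate cells (96-well), add compound at 5 concentrations, incubate 48 h, interpolate endpoints linearly. GI50 = concentration required for 50% inhibition of growth.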 Active and inactive are the calls of the source. Rule as the data show it: active = GI50 up to about 1.1 µM and inactive = higher.

Columns and labels:
Assay in all cases: NCI anticancer screen, dose series, 48 h
[1] = test system: 786-0
[2] = test system: A498
[3] = test system: A549
[4] = test system: ACHN
[5] = test system: BT-549
[6] = test system: CCRF-CEM
[7] = test system: COLO 205
[8] = test system: DU-145
[9] = test system: EKVX
[10] = test system: HCC 2998
[11] = test system: HCT-116
[12] = test system: HCT-15
[13] = test system: HL-60
[14] = test system: HOP-62
[15] = test system: HOP-92
[16] = test system: HT-29
[17] = test system: IGROV-1
[18] = test system: K562
[19] = test system: LOX IMVI
[20] = test system: M14
[21] = test system: MCF7
[22] = test system: MDA-MB-231
[23] = test system: MDA-MB-435
[24] = test system: MDA-N
[25] = test system: MOLT-4
[26] = test system: Malme-3M
[27] = test system: NCI-H226
[28] = test system: NCI-H23
[29] = test system: NCI-H460
[30] = test system: NCI/ADR-RES
[31] = test system: OVCAR-3
[32] = test system: OVCAR-4
[33] = test system: OVCAR-5
[34] = test system: OVCAR-8
[35] = test system: PC-3
[36] = test system: RPMI-8226
[37] = test system: SF-268
[38] = test system: SF-295
[39] = test system: SK-MEL-28
[40] = test system: SK-MEL-5
[41] = test system: SK-OV-3
[42] = test system: SN12C
[43] = test system: SNB-19
[44] = test system: SNB-75
[45] = test system: SR
[46] = test system: SW-620
[47] = test system: T47D
[48] = test system: TK-10
[49] = test system: U-251
[50] = test system: UACC-257
[51] = test system: UACC-62
[52] = test system: UO-31

COC(=O)C1(Cc2cccc(Cl)c2)CCCCCCN1C(=O)c1ccccc1 (configuration not stated) was tested, and the GI50 [1] was 13.2 µM (inactive), the GI50 [2] was 15.4 µM (inactive) and the GI50 [3] was 14.5 µM (inactive). For the same compound, the GI50 [4] was 9.46 µM (inactive), the GI50 [5] was 16.7 µM (inactive) and the GI50 [6] was 13.1 µM (inactive). The GI50 [7] was 15.5 µM (inactive), the GI50 [8] was 19.3 µM (inactive) and the GI50 [9] was 12 µM (inactive). The GI50 [10] was 13.6 µM (inactive), the GI50 [11] was 13.1 µM (inactive) and the GI50 [12] was 11.5 µM. The GI50 [13] was 5.97 µM (inactive), the GI50 [14] was 15.5 µM (inactive) and the GI50 [15] was 14.3 µM (inactive). For the same compound, the GI50 [16] was 12.9 µM (inactive), the GI50 [17] was 19.1 µM (inactive) and the GI50 [18] was 10.7 µM (inactive). The GI50 [19] was 17.5 µM (inactive), the GI50 [20] was 17.9 µM (inactive) and the GI50 [21] was 13.5 µM (inactive). The GI50 [22] was 13 µM (inactive), the GI50 [23] was 18.9 µM (inactive) and the GI50 [24] was 16.5 µM (inactive). The GI50 [25] was 8.89 µM (inactive), the GI50 [26] was 12.2 µM (inactive) and the GI50 [27] was 25.1 µM (inactive). The GI50 [28] was 17.2 µM (inactive), the GI50 [29] was 15.2 µM (inactive) and the GI50 [30] was 16.9 µM (inactive). The GI50 [31] was 6.71 µM (inactive), the GI50 [32] was 14.5 µM (inactive) and the GI50 [33] was 15.8 µM (inactive). For the same compound, the GI50 [34] was 16.6 µM (inactive), the GI50 [35] was 4.98 µM (inactive) and the GI50 [36] was 6.7 µM (inactive). For the same compound, the GI50 [37] was 20.6 µM (inactive), the GI50 [38] was 6.98 µM (inactive) and the GI50 [39] was 14.9 µM (inactive). The GI50 [40] was 12.8 µM (inactive), the GI50 [41] was 19.2 µM (inactive) and the GI50 [42] was 14.5 µM (inactive). For the same compound, the GI50 [43] was 15.1 µM (inactive), the GI50 [44] was 13 µM (inactive) and the GI50 [45] was 13.9 µM (inactive). For the same compound, the GI50 [46] was 18.2 µM (inactive), the GI50 [47] was 14.4 µM (inactive) and the GI50 [48] was 12 µM (inactive). The GI50 [49] was 15.4 µM (inactive), the GI50 [50] was > 10 µM (inactive) and the GI50 [51] was 11.1 µM (inactive). For the same compound, the GI50 [52] was 10.8 µM (inactive).
